Target: T1, HCV NS3 helicase NS3h_1b(con1) (Hepatitis C virus genotype 1b, UniProt Q9WMX2)
T1 construct: truncated C-terminally His-tagged NS3 proteins lacking the N-terminal protease, called NS3h; His-tag (C); made in house
Assay: MBHA screen of NCI mechanistic set library at 20 μM (percent inhibition, compound interference)
Assay type: biochemical
Settings: compounds at 20 μM; for Inh. (%) (Inhibition): calculated from Equation 1
How it was run: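 Molecular beacon-based DNA unwinding assay; compounds screened at 20 μM in triplicate, with DMSO-only negative and 500 nM dT20 positive controls. Fluorescence (ex 643/em 670 nm) was read before and 30 min after adding ATP to 1 mM. Percent inhibition came from the change relative to DMSO controls; interference from pre-ATP fluorescence versus DMSO controls.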

[1] = MBHA with DNA substrate, assay interference calculated with Equation 2
[2] = assay interference calculated with Equation 2 (fluorescence vs DMSO-only controls before ATP)

T1 sequence (Q9WMX2 1192-1657): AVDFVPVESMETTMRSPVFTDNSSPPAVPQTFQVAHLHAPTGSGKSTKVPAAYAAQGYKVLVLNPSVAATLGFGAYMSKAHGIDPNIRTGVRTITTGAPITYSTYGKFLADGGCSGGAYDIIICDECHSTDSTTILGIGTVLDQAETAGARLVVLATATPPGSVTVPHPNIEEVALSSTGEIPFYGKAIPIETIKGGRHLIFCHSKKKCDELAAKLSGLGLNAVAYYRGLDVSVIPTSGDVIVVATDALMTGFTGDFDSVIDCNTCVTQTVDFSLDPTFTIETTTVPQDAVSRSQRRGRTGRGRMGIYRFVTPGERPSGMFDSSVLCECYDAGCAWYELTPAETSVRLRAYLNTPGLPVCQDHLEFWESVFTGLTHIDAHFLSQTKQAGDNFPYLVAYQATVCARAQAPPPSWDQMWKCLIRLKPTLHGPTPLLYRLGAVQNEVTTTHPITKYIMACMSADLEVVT

| SMILES | Int.* (Ratio) (Interference) [1] | Inh. (%) (Inhibition) (MBHA with DNA substrate) | Inh. (%) (Inhibition) (MBHA with a DNA substrate) | Int.* (Ratio) (Interference) [2] |
| --- | --- | --- | --- | --- |
| CCN(CC)CCN1C(=O)c2c(c3c4cccc(Cl)c4n(C4OC(CO)C(OC)C(O)C4O)c3c3[nH]c4c(Cl)cccc4c23)C1=O (stereo not drawn) [Compound 640199] | 0.70 | 76.4 |  |  |
| Cc1nc(Nc2ccc(Cl)c(Cl)c2)sc1C(/C=C/c1ccc2c(c1)OCO2)=N/Nc1ccc([N+](=O)[O-])cc1[N+](=O)[O-] [Compound 640335] |  |  | −24.2 | 0.91 |
| Cc1ccc(Nc2nc(C)c(C(/C=C/c3ccc(/C=C/C(=N\NC(=O)C[n+]4ccccc4)c4sc(Nc5ccc(C)cc5[N+](=O)[O-])nc4C)cc3)=N/NC(=O)C[n+]3ccccc3)s2)c([N+](=O)[O-])c1.Cl [Compound 640342] |  |  | −22.4 | 0.95 |
| CN(C)C[C@H]1CC[C@@H](CN(C)C)C1=O.Cl.Cl [Compound 640391] |  |  | 10.6 | 1.09 |
| OCCOc1ccc(-c2cc(-c3ccccn3)nc(-c3ccccn3)c2)cc1 [Compound 640499] |  |  | −25.9 | 0.91 |
| CCNCCCCNCCCCNCCCCNCCCCNCC.Cl [Compound 640506] | 0.91 | 71.1 |  |  |
| Cc1nc(-c2cccnc2)sc1C(=O)/C=C/c1ccc(Cl)cc1Cl [Compound 640580] |  |  | −32.9 | 1.09 |
| Cc1nc(-n2nc(-c3ccccc3)cc2-c2ccccc2)sc1C(=O)/C=C/c1ccc(Cl)c(Cl)c1 [Compound 640584] |  |  | 9.6 | 0.90 |
| CC1=CC(C)(C)N=C2SC(c3ccc(N)cc3)=NN12 [Compound 640624] |  |  | −4.2 | 1.11 |
| S=C(Nc1ccccc1)N(/N=C/C=C/c1ccccc1)c1nnc(-c2ccccc2)c(-c2ccccc2)n1 [Compound 640637] |  |  | −3.0 | 0.86 |
| BrC(/C=N/Nc1nnc(-c2ccccc2)c(-c2ccccc2)n1)C(Br)c1ccccc1 (stereo not drawn) [Compound 640638] | 0.93 | −7.0 |  |  |
| N#Cc1ccccc1NC(=O)C(=O)C(C(=O)c1ccccc1F)C1OC(=O)c2ccccc21 (stereo not drawn) [Compound 640974] |  |  | −33.1 | 0.87 |
| Cc1ccc(C)c(NC(=O)C(=O)C(C(=O)c2ccc3ccccc3c2)C2OC(=O)c3ccccc32)c1 (stereo not drawn) [Compound 640985] | 0.97 | −10.5 |  |  |
| Cc1ccccc1NC(=O)C(=O)C(C(=O)c1ccccc1F)C1OC(=O)c2ccccc21 (stereo not drawn) [Compound 641228] |  |  | −39.7 | 0.92 |
| O=C(NC1=C(Cl)C(=O)c2ccccc2C1=O)C(=O)C(C(=O)c1ccc2ccccc2c1)C1OC(=O)c2ccccc21 (stereo not drawn) [Compound 641233] | 0.91 | −13.1 |  |  |
| COC(=O)c1ccccc1NC(=O)C(=O)CC(=O)c1ccccc1NC1=CC(=O)C(=O)c2ccccc21 [Compound 641240] | 0.88 | −14.8 |  |  |
| O=C(CC(=O)c1ccccc1NC1=Cc2ccccc2C(=O)C1=O)C(=O)NC1=C(Cl)C(=O)c2ccccc2C1=O [Compound 641245] | 0.89 | −13.7 |  |  |
| O=C1C=C(Nc2ccccc2C(=O)CC(=O)C(=O)Nc2ccc(Cl)c(Cl)c2)c2ccccc2C1=O [Compound 641250] | 0.95 | −13.6 |  |  |
| O=C1C=C(Nc2ccccc2C(=O)CC(=O)C(=O)Nc2ccc(Cl)cc2)c2ccccc2C1=O [Compound 641253] |  |  | −34.2 | 0.95 |
| COc1ccc(/C(=N/O)C(c2ccc(OC)cc2)C2C(=O)Oc3ccccc32)cc1 (stereo not drawn) [Compound 641607] | 1.03 | 29.4 |  |  |
| CCc1cccc(C(C)C)c1NC(=O)/C(=N\NC(N)=O)C(C(=O)OC)c1cnc2ccccc2n1 (stereo not drawn) [Compound 642033] | 0.99 | 1.4 |  |  |
| COC(=O)C(=O)C(C(=O)C(=O)Nc1cc(C)ccc1C)c1nc2ccc(C(=O)c3ccccc3)cc2[nH]c1=O (stereo not drawn) [Compound 642040] |  |  | −3.2 | 0.90 |
| CC(C)OP(=O)(OC(C)C)C(N(C)C)P(=O)(OC(C)C)OC(C)C.[Cl][Sn]([Cl])([Cl])[c]1ccccc1 [Compound 645567] | 1.04 | 2.4 |  |  |
| CCOC(OC1=C(C#N)CCC1)C(C)[Se]c1ccccc1 (stereo not drawn) [Compound 646189] | 0.92 | −1.0 |  |  |
| CCOC(OCC)C(CC)[Se]c1ccccc1[N+](=O)[O-] (stereo not drawn) [Compound 646200] |  |  | −3.7 | 1.14 |

The remaining lines, values ahead:

| Int.* (Ratio) (Interference) [1] | Inh. (%) (Inhibition) (MBHA with DNA substrate) | Inh. (%) (Inhibition) (MBHA with a DNA substrate) | Int.* (Ratio) (Interference) [2] | SMILES |
| --- | --- | --- | --- | --- |
| 0.99 | −11.3 |  |  | Cc1nc(C(N)=S)sc1C(=O)CC(=O)C(=O)Nc1c(C(C)C)cccc1C(C)C [Compound 642048] |
| 1.05 | −11.2 |  |  | O=C(c1nc2ccc(Cl)cc2[nH]c1=O)C(O)c1ccc2c(c1)OCO2 (stereo not drawn) [Compound 642649] |
|  |  | −19.4 | 0.96 | COc1ccc(/C=C\c2cc(OC)c(OC)c(OC)c2)cc1OP(=O)(O)O.N [Compound 643001] |
| 0.96 | −13.0 |  |  | N#CC(C#N)=Cc1ccc(Oc2ccccc2)cc1 [Compound 643028] |
| 1.08 | −0.1 |  |  | N#CC(C#N)=Cc1cccc(Oc2ccccc2)c1 [Compound 643031] |
|  |  | −20.3 | 0.98 | O=C1c2ccccc2C(=O)C1C(c1ccc([N+](=O)[O-])cc1)C1C(=O)c2ccccc2C1=O [Compound 643148] |
| 1.02 | −2.2 |  |  | CN(C)c1ccc(/C=C2\CCc3ccccc3C2=O)cc1Br [Compound 643162] |
| 1.09 | −12.3 |  |  | CN(C)c1ccc(/C=C2\Cc3ccccc3C2=O)cc1Br [Compound 643163] |
| 0.86 | 14.9 |  |  | CN(C)c1ccc(/C=C/C(=O)c2ccccc2)cc1Br [Compound 643164] |
| 1.07 | −9.6 |  |  | COc1ccc(/C=C2\Cc3ccccc3C2=O)cc1OC [Compound 643174] |
| 0.93 | −17.5 |  |  | COc1ccc(/C=C2\CCc3ccccc3C2=O)cc1OC [Compound 643175] |
|  |  | −21.0 | 1.04 | N#C/C(=C\c1ccc2ccccc2c1)C(=O)c1ccccc1 [Compound 643186] |
|  |  | −20.4 | 0.89 | CN(C)c1ccc(/C=C/C(=O)[O-])cc1.CN(C)c1ccc(/C=C/C(=O)[O-])cc1.[Cu+2] [Compound 643351] |
| 0.90 | 14.6 |  |  | CCOC(=O)/C(=C/c1ccc(N(C)C)cc1)N(CC)CC [Compound 643774] |
|  |  | −5.7 | 0.91 | COc1ccc(/C=C/c2cc(OC)c(OC)c(OC)c2)cc1OP(=O)(O)O [Compound 643812] |
|  |  | −3.8 | 0.89 | CCCCCCCCCCCCCCCCCCN(C)C(COC)COP(=O)([O-])OCC[N+](C)(C)C (stereo not drawn) [Compound 643826] |
| 0.88 | −1.3 |  |  | CCCC/C=C/C=C/C=C/CCCCCCCC(=O)OCC(COC(=O)CCCCCCC/C=C/C1C=CC(CCCC)C(C(=O)O)C1C(=O)O)OC(=O)CCCCCCC/C=C/C=C/C=C/CCCC.OCCNCO (stereo not drawn) [Compound 643834] |
|  |  | −21.3 | 1.06 | CCOC(=O)C1=C(C)NC(=S)NC1c1ccccc1 (stereo not drawn) [Compound 643910] |
| 0.94 | 17.3 |  |  | Cc1ccccc1NC(=O)C(=O)C(c1cnc2ccc([N+](=O)[O-])cc2n1)[N+](=O)[O-] (stereo not drawn) [Compound 644735] |
| 0.96 | −17.5 |  |  | O=C(Nc1cccc(C(F)(F)F)c1)C(=O)C(C(=O)c1ccc(Cl)c(Cl)c1)C1OC(=O)c2ccccc21 (stereo not drawn) [Compound 644794] |
| 0.96 | −18.4 |  |  | Clc1ccc(-c2c(C3=NCCCN3)nnn2-c2ccc(Cl)cc2)cc1 [Compound 645033] |
|  |  | −7.0 | 0.88 | Oc1cc(-n2cccn2)c(O)cc1-n1cccn1 [Compound 645987] |
| 0.93 | −17.1 |  |  | COc1cc(/C=C(\OC(C)=O)c2ccc3c(c2)OCO3)cc(OC)c1OC [Compound 647363] |
|  |  | −24.7 | 1.00 | CN/N=C(\C)C(CN1CCCCC1)C(C1=C(O)c2ccccc2OC1)c1ccccc1.Cl (stereo not drawn) [Compound 647418] |
| 0.91 | 23.5 |  |  | O=C1Oc2ccccc2C1C/C(=N\Nc1ccccc1)c1ccccc1O (stereo not drawn) [Compound 647613] |
| 0.89 | 1.6 |  |  | CN(C)[C@H]1CCC2[C@@H]3CCC4C[C@@H](NC(=O)NC(Cc5ccccc5)c5nccs5)CC[C@]4(C)C3CC[C@@]21C (stereo partly drawn) [Compound 647889] |
